Experimental data: patent US9175030B2, “Derivatives of avicin D and methods of making and using thereof” (priority 2012, dated 2015)
pIC50: −log10 of the molar value.

Columns and labels:
PC3 = experiment: MTT growth inhibition, PC3; format: cell-based; settings: Homo sapiens, PC-3, PC3 cells, 72 hrs
Protocol: (§1) The growth inhibitory effects of avicin D and oxetane derivative were measured using the MTT [3-(4,5-dimethylthiazol-2-yl)-2,5-diphenyl tetrazolium bromide] reduction assay as described in Haridas et al. (2001). Cells were cultured with varying concentrations of avicin D or oxetane in 96-well plates for 72 hrs at 37° C. At the end of 72 hrs, cells were stained with MTT for 2 hrs and then incubated with lysis buffer (20% SDS in 50% N,N-dimethylformamide) for another 6 hrs. Optical density at 570 nm was used as a measure of cell viability.
(§2) The cell lines 769P, A498, CAKI-1, and CAKI-2 are derived from primary human renal-cell cancers (RCC). A549 is a human lung adenocarcinoma epithelial cell line. B16F10 is a mouse melanoma cell line. BT474, BT 474 M1, BT549, MCF7, […], and ZR751 are breast cancer cell lines. CCRF-CEM, Jurkat, and MOLT4 are leukemia cell lines. HELA is cell line derived from cervical caner. HepG2 is a human hepatocellular liver carcinoma cell line. JeKo-1 is a mantle cell lymphoma (MCL) cell line. LnCAP is a cell line was established from a metastatic lesion of human prostatic adenocarcinoma. MM.1 and RPMI-8226 are human multiple myeloma cell lines. OVCAR3 and SKOV3 are ovarian cancer cell lines. Panc-1 is a pancreatic cancer cell line. PC3 is a prostate cancer cell line. Raji is a Burkitt's lymphoma cell line. RL is a non-Hodgkin's lymphoma cell line. […]

U2OS = experiment: MTT growth inhibition, U2OS; format: cell-based, human; settings: Homo sapiens, U2OS cells, 72 hrs
Protocol: as §1, §2

RL = experiment: MTT growth inhibition, RL; format: cell-based; settings: Homo sapiens, RL cells, 72 hrs
Protocol: as §1, §2

Jurkat = experiment: MTT growth inhibition, Jurkat; format: cell-based, human; settings: Homo sapiens, Jurkat cells, 72 hrs (Table 5)
Protocol: as §1, §2

OVCAR3 = experiment: MTT growth inhibition, OVCAR3; format: cell-based; settings: Homo sapiens, OVCAR-3, OVCAR3 cells, 72 hrs
Protocol: as §1, §2

BT549 = experiment: MTT growth inhibition, BT549; format: cell-based; settings: Homo sapiens, BT-549, BT549 cells, 72 hrs
Protocol: as §1, §2

BT474 = experiment: MTT growth inhibition, BT474; format: cell-based; settings: Homo sapiens, BT-474, BT474 cells, 72 hrs
Protocol: as §1, §2

SKOV3 = experiment: MTT growth inhibition, SKOV3; format: cell-based; settings: Homo sapiens, SK-OV-3, SKOV3 cells, 72 hrs
Protocol: as §1, §2

MINO = experiment: MTT growth inhibition, MINO; format: cell-based; settings: Homo sapiens, MINO cells, 72 hrs
Protocol: as §1, §2

MM1 = experiment: MTT growth inhibition, MM1; format: cell-based, human; settings: Homo sapiens, MM1 cells, 72 hrs
Protocol: as §1, §2

U266 = experiment: MTT growth inhibition, U266; format: cell-based; settings: Homo sapiens, U-266, U266 cells, 72 hrs
Protocol: as §1, §2

HS27 = experiment: MTT growth inhibition, HS27; format: cell-based; settings: HS27 human foreskin fibroblast cells, 72 hrs
Protocol: as §1, §2

GM0131 = experiment: MTT growth inhibition, GM0131; format: cell-based; settings: GM0131 wild type human fibroblast cells, 72 hrs
Protocol: as §1, §2

WSU-DLCL2 = experiment: MTT growth inhibition, WSU-DLCL2; format: cell-based, human; settings: Homo sapiens, WSUDLCL2, WSU-DLCL2 cells, 72 hrs
Protocol: as §1, §2

Panc-1 = experiment: MTT growth inhibition, Panc-1; format: cell-based; settings: Homo sapiens, Panc-1 cells, 72 hrs
Protocol: as §1, §2

ZR751 = experiment: MTT growth inhibition, ZR751; format: cell-based; settings: Homo sapiens, ZR-75-1, ZR751 cells, 72 hrs
Protocol: as §1, §2

CCRF-CEM = experiment: MTT growth inhibition, CCRF-CEM; format: cell-based; settings: Homo sapiens, CCRF-CEM cells, 72 hrs
Protocol: as §1, §2

769P = experiment: MTT growth inhibition, 769P; format: cell-based, human; settings: Homo sapiens, 769P cells, 72 hrs
Protocol: as §1, §2

A549 = experiment: MTT growth inhibition, A549; format: cell-based, human; settings: Homo sapiens, A549 cells, 72 hrs
Protocol: as §1, §2

[1] = test system: Jurkat (human T-cell leukemia) cells; experiment: Reduction in cell viability, Jurkat cells (Table 6); format: cell-based; settings: Homo sapiens, 50% reduction in cell viability
Description: The IC50 values indicate the concentrations of avicin D/compound 8 required to induce a 50% reduction in call viability. These studies were done in Jurkat (human T-cell leukemia) cells and have been described previously in Haridas et al., 2001, which is incorporated herein by reference.

A498 = experiment: MTT growth inhibition, A498; format: cell-based, human; settings: Homo sapiens, A498 cells, 72 hrs
Protocol: as §1, §2

MOLT4 = experiment: MTT growth inhibition, MOLT4; format: cell-based; settings: Homo sapiens, MOLT-4, MOLT4 cells, 72 hrs
Protocol: as §1, §2

CAKI-1 = experiment: MTT growth inhibition, CAKI-1; format: cell-based, human; settings: Homo sapiens, CAKI-1 cells, 72 hrs
Protocol: as §1, §2

LnCAP = experiment: MTT growth inhibition, LnCAP; format: cell-based, human; settings: Homo sapiens, LnCAP cells, 72 hrs
Protocol: as §1, §2

HEK293 = experiment: MTT growth inhibition, HEK293; format: cell-based, human; settings: Homo sapiens, HEK293 cells, 72 hrs
Protocol: as §1, §2

MCF7 = experiment: MTT growth inhibition, MCF7; format: cell-based; settings: Homo sapiens, MCF7 cells, 72 hrs
Protocol: as §1, §2

RPMI 8226 = experiment: MTT growth inhibition, RPMI 8226; format: cell-based, human; settings: Homo sapiens, RPMI 8226 cells, 72 hrs
Protocol: as §1, §2

B16F10 = experiment: MTT growth inhibition, B16F10; format: cell-based, mouse; settings: Mus musculus, B16-F10, B16F10 cells, 72 hrs
Protocol: as §1, §2

Nrf2 = Nrf2 activation, ARE-driven luciferase in Hep G2 cells; format: cell-based, human; settings: Hep G2 cells transfected with hARE-luc, luciferase activity
Protocol: Activation of Nrf2 was assessed by measuring the antioxidant response element (ARE)-mediated gene expression as described previously by Haridas et al., 2004, which is incorporated herein by reference. Briefly, ARE is a cis-acting regulatory sequence identified in the promoter region of several genes encoding phase 2 detoxification enzymes, that binds to Nrf2. Hep G2 (human hepatocarcinoma) cells were transfected with a human ARE-driven luciferase (luc) containing plasmid, hARE-luc. Following exposure to avicin D/compound 8, the luciferase activity induced in these cells was measured using a dual-luciferase assay kit (Promega) according to the manufacturer's protocol.

Hela = experiment: MTT growth inhibition, Hela; format: cell-based; settings: Homo sapiens, Hela cells, 72 hrs
Protocol: as §1, §2

BT474 M1 = experiment: MTT growth inhibition, BT474 M1; format: cell-based; settings: Homo sapiens, BT474M1, BT474 M1 cells, 72 hrs
Protocol: as §1, §2

3T3 L1 = experiment: MTT growth inhibition, 3T3 L1; format: cell-based; settings: Mus musculus, 3T3 L1 fibroblast cells, 72 hrs
Protocol: as §1, §2

CAKI-2 = experiment: MTT growth inhibition, CAKI-2; format: cell-based, human; settings: Homo sapiens, CAKI-2 cells, 72 hrs
Protocol: as §1, §2

HepG2 = experiment: MTT growth inhibition, HepG2; format: cell-based, human; settings: Homo sapiens, HepG2 cells, 72 hrs
Protocol: as §1, §2

Raji = experiment: MTT growth inhibition, Raji; format: cell-based; settings: Homo sapiens, Raji cells, 72 hrs
Protocol: as §1, §2

JEKO-1 = experiment: MTT growth inhibition, JEKO-1; format: cell-based; settings: Homo sapiens, JEKO-1 cells, 72 hrs
Protocol: as §1, §2

C=CC(C)(O)CCC1OCC1C(=O)O[C@@H]1C(C)O[C@@H](O[C@](C)(C=C)CC/C=C(\CO)C(=O)O[C@H]2C[C@@]3(C(=O)O[C@@H]4OC(CO)[C@@H](O)C(O)C4O[C@@H]4OC(C)[C@H](O[C@@H]5O[C@@H](CO)[C@H](O)[C@@H]5O)C(O[C@@H]5OC(CO)[C@@H](O)C(O)C5O)C4O)C(CC2(C)C)C2=CCC4[C@@]5(C)CC[C@H](O[C@@H]6OC(CO[C@@H]7OC(C)[C@H](O)C(O)C7O[C@@H]7OC[C@@H](O)C(O)C7O)[C@@H](O)C(O)C6NC(C)=O)C(C)(C)C5CC[C@@]4(C)[C@]2(C)C[C@H]3O)C(O)C1O (stereo partly drawn) [Compound 8]
pIC50 (PC3): 6.72 | pIC50 (U2OS): 5.92 | pIC50 (RL): 7.10 | pIC50 (Jurkat): 7.05 | pIC50 (OVCAR3): 6.68 | pIC50 (BT549): 5.85 | pIC50 (BT474): 6.05 | pIC50 (SKOV3): 6.38 | pIC50 (MINO): 7.22 | pIC50 (MM1): 7.52 | pIC50 (U266): 7.10 | pIC50 (HS27): 5.60 | pIC50 (GM0131): 4.92 | pIC50 (WSU-DLCL2): 6.85 | pIC50 (Panc-1): 6.51 | pIC50 (ZR751): 6.47 | pIC50 (CCRF-CEM): 6.20 | pIC50 (769P): 6.82 | pIC50 (A549): 5.92 | pIC50 [1]: 7.40 | pIC50 (A498): 6.66 | pIC50 (MOLT4): 6.70 | pIC50 (CAKI-1): 6.55 | pIC50 (LnCAP): 6.72 | pIC50 (HEK293): 5.17 | pIC50 (MCF7): 5.59 | pIC50 (RPMI 8226): 6.80 | pIC50 (B16F10): 6.85 | Fold Nrf2 activation (Nrf2): 0.98 | pIC50 (Hela): 5.73 | pIC50 (BT474 M1): 6.15 | pIC50 (3T3 L1): 6.10 | pIC50 (CAKI-2): 6.31 | pIC50 (HepG2): 6.51 | pIC50 (Raji): 6.21 | pIC50 (JEKO-1): 6.80
